Reference: patent US8288342B2, “Methods for treating vasomotor symptoms in castrated prostatic cancer patients with low dose cyproterone acetate” (priority 2008, dated 2012)

What was measured:
[1] = over 2500 patients, long-term use; men 100 to 200 or more than 200 mg/day; cited from earlier work
[2] = Same Phase 2 trial: adverse events and discontinuation; type: in vivo, human
Source text: The overall study duration for each subject was approximately 19 weeks, which included a screening period of up to 4 weeks, a one-week placebo run-in period, a 12-week double-blind period, and a follow-up telephone call two weeks after the last dose of study medication.
After providing informed consent on the first day of the screening period, all subjects had medical and hot flash history recorded, a physical examination, a chest x-ray and Doppler to assess known thromboembolic risk factors, an ECG to evaluate cardiac risks, and clinical laboratory evaluations. Once all results of tests conducted during the screening period were obtained, subjects who met all of the inclusion criteria and none of the exclusion criteria were eligible to enter the one-week, single-blind, placebo run-in period. […] After beginning study medication, subjects returned for study visits at weeks 2, 4, 8, and 12. Two weeks after the final treatment visit, a telephone follow-up call was conducted to record and evaluate adverse events (“AE”s) since the last study visit.

[3] = Same Phase 2 trial: cyproterone acetate and 15β-OH cyproterone acetate concentrations by treatment and visit; type: in vivo, human; details: 5 mg/day, 15 mg/day and 25 mg/day
Method: FIG. 3 depicts schematically the analysis of cyproterone acetate and 15β-OH cyproterone acetate (a breakdown product of cyproterone acetate that contributes to the effectiveness of the drug) concentration in the patients who were treated.

CC(=O)O[C@]1(C(C)=O)CC[C@H]2[C@@H]3C=C(Cl)C4=CC(=O)[C@@H]5C[C@@H]5[C@]4(C)[C@H]3CC[C@@]21C [CPA, cyproterone acetate]
Correlation between duration of CPA treatment and prevalence of liver enzyme elevations [1]: No correlation was found | 12-week double-blind discontinuation due to Adverse Event, number ([2]; CPA 5 mg (N = 81)): 2 | 12-week double-blind discontinuation rate due to Adverse Event ([2]; CPA 5 mg (N = 81)): (2.5%) | Treatment-emergent AE Constipation, % ([2]; CPA 5 mg (N = 81)): 0.00% | Treatment-emergent AE Depression, % ([2]; CPA 5 mg (N = 81)): 1.23% | Treatment-emergent AE Diarrhoea, % ([2]; CPA 5 mg (N = 81)): 2.47% | Treatment-emergent AE Dizziness, % ([2]; CPA 5 mg (N = 81)): 2.47% | Treatment-emergent AE Dyspnoea, % ([2]; CPA 5 mg (N = 81)): 3.70% | Treatment-emergent AE Fatigue, % ([2]; CPA 5 mg (N = 81)): 1.23% | Treatment-emergent AE Headache, % ([2]; CPA 5 mg (N = 81)): 3.70% | Treatment-emergent AE Influenza, % ([2]; CPA 5 mg (N = 81)): 0.00% | Treatment-emergent AE Nasopharyngitis, % ([2]; CPA 5 mg (N = 81)): 3.70% | Treatment-emergent AE Nausea, % ([2]; CPA 5 mg (N = 81)): 0.00% | Treatment-emergent AE Oedema peripheral, % ([2]; CPA 5 mg (N = 81)): 1.23% | Treatment-emergent AE Pain in extremity, % ([2]; CPA 5 mg (N = 81)): 3.70% | Treatment-emergent AE Urinary tract infection, % ([2]; CPA 5 mg (N = 81)): 1.23% | Treatment-emergent AE Vomiting, % ([2]; CPA 5 mg (N = 81)): 1.23% | Treatment-related AE Constipation, % ([2]; CPA 5 mg (N = 81)): 0.00% | Treatment-related AE Dyspnoea, % ([2]; CPA 5 mg (N = 81)): 0.00% | Proportion of subjects experiencing treatment-emergent AEs, rank among groups ([2]; CPA 5 mg/day vs placebo, 15 and 25 mg/day): fewest proportion of subjects | 12-week double-blind discontinuation due to Adverse Event, number ([2]; CPA 15 mg (N = 99)): 5 | 12-week double-blind discontinuation rate due to Adverse Event ([2]; CPA 15 mg (N = 99)): (5.1%) | Treatment-emergent AE Constipation, % ([2]; CPA 15 mg (N = 99)): 6.06% | Treatment-emergent AE Depression, % ([2]; CPA 15 mg (N = 99)): 4.04% | Treatment-emergent AE Diarrhoea, % ([2]; CPA 15 mg (N = 99)): 6.06% | Treatment-emergent AE Dizziness, % ([2]; CPA 15 mg (N = 99)): 7.07% | Treatment-emergent AE Dyspnoea, % ([2]; CPA 15 mg (N = 99)): 7.07% | Treatment-emergent AE Fatigue, % ([2]; CPA 15 mg (N = 99)): 6.06% | Treatment-emergent AE Gynaecomastia, % ([2]; CPA 15 mg (N = 99)): 2.02% | Treatment-emergent AE Headache, % ([2]; CPA 15 mg (N = 99)): 2.02% | Treatment-emergent AE Influenza, % ([2]; CPA 15 mg (N = 99)): 1.01% | Treatment-emergent AE Nasopharyngitis, % ([2]; CPA 15 mg (N = 99)): 3.03% | Treatment-emergent AE Nausea, % ([2]; CPA 15 mg (N = 99)): 2.02% | Treatment-emergent AE Oedema peripheral, % ([2]; CPA 15 mg (N = 99)): 1.01% | Treatment-emergent AE Pain in extremity, % ([2]; CPA 15 mg (N = 99)): 3.03% | Treatment-emergent AE Urinary tract infection, % ([2]; CPA 15 mg (N = 99)): 0.00% | Treatment-emergent AE Vomiting, % ([2]; CPA 15 mg (N = 99)): 0.00% | Treatment-related AE Constipation, % ([2]; CPA 15 mg (N = 99)): 2.02% | Treatment-related AE Dyspnoea, % ([2]; CPA 15 mg (N = 99)): 4.04% | 12-week double-blind discontinuation due to Adverse Event, number ([2]; CPA 25 mg (N = 87)): 7 | 12-week double-blind discontinuation rate due to Adverse Event ([2]; CPA 25 mg (N = 87)): (8.0%) | Treatment-emergent AE Constipation, % ([2]; CPA 25 mg (N = 87)): 3.45% | Treatment-emergent AE Depression, % ([2]; CPA 25 mg (N = 87)): 1.15% | Treatment-emergent AE Diarrhoea, % ([2]; CPA 25 mg (N = 87)): 3.45% | Treatment-emergent AE Dizziness, % ([2]; CPA 25 mg (N = 87)): 4.60% | Treatment-emergent AE Dyspnoea, % ([2]; CPA 25 mg (N = 87)): 8.05% | Treatment-emergent AE Fatigue, % ([2]; CPA 25 mg (N = 87)): 1.15% | Treatment-emergent AE Gynaecomastia, % ([2]; CPA 25 mg (N = 87)): 4.60% | Treatment-emergent AE Headache, % ([2]; CPA 25 mg (N = 87)): 3.45% | Treatment-emergent AE Influenza, % ([2]; CPA 25 mg (N = 87)): 3.45% | Treatment-emergent AE Nasopharyngitis, % ([2]; CPA 25 mg (N = 87)): 5.75% | Treatment-emergent AE Nausea, % ([2]; CPA 25 mg (N = 87)): 2.30% | Treatment-emergent AE Oedema peripheral, % ([2]; CPA 25 mg (N = 87)): 5.75% | Treatment-emergent AE Pain in extremity, % ([2]; CPA 25 mg (N = 87)): 0.00% | Treatment-emergent AE Urinary tract infection, % ([2]; CPA 25 mg (N = 87)): 3.45% | Treatment-emergent AE Vomiting, % ([2]; CPA 25 mg (N = 87)): 2.30% | Treatment-related AE Constipation, % ([2]; CPA 25 mg (N = 87)): 3.45% | Treatment-related AE Dyspnoea, % ([2]; CPA 25 mg (N = 87)): 4.60% | Cyproterone acetate and 15β-OH cyproterone acetate concentration in treated patients [3]: dose proportional response
